Tests used:
[1] = target: T1, serpentine synthase (SS, CrSS) (Catharanthus roseus, UniProt A0A8F5R546); test: LC-MS of product serpentine, yeast cultures expressing CrSS and yeast microsomes; assay type: biochemical; details: 30 uM substrate; microsomes: 150 uM NADPH, HEPES-NaOH pH 7.5, 30 C, 60 min; AaCPR co-expressed
T1 construct: predicted TM helix aa 7-24 FWSLPAIALLQVFLFFLF; 6HIS version (in planta) about 59 kDa
T1 sequence (A0A8F5R546 1-511): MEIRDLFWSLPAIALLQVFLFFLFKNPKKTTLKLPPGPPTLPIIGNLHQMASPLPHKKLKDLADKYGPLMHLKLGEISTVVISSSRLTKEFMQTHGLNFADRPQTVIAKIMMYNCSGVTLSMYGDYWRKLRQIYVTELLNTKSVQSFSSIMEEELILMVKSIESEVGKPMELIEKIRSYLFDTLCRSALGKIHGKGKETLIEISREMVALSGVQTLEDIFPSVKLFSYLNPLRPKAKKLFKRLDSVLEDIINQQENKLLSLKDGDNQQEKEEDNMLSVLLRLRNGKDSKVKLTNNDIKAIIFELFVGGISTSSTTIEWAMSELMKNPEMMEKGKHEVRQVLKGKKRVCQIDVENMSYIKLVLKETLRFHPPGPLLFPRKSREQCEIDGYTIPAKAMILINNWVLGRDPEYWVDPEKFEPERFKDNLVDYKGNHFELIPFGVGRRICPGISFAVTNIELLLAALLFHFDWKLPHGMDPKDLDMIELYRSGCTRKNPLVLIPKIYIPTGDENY

[2] = target: T1, serpentine synthase (SS, CrSS); test: LC-MS of product alstonine, yeast cultures expressing CrSS and yeast microsomes; assay type: biochemical; details: 30 uM substrate; microsomes: 150 uM NADPH, HEPES-NaOH pH 7.5, 30 C, 60 min; AaCPR co-expressed

SMILES | LC-MS of product serpentine, yeast cultures expressing CrSS and yeast microsomes [1] | LC-MS of product alstonine, yeast cultures expressing CrSS and yeast microsomes [2]
COC(=O)C1=CO[C@@H](C)[C@H]2CN3CCc4c([nH]c5ccccc45)[C@@H]3C[C@H]12 [ajmalicine] | CrSS produced serpentine from ajmalicine when incubated in the media of yeast cultures expressing CrSS | –
COC(=O)C1=CO[C@@H](C)[C@@H]2CN3CCc4c([nH]c5ccccc45)[C@@H]3C[C@H]12 [THA] | – | this cytochrome P450 could also produce alstonine from THA
